Source: patent publication US20220332708A1 (Cytokinetics, Inc., priority 2021, published 2022)

System: Bovine cardiac myofibrils
Assay: Dose-dependent myofibril ATPase modulation (calcium-buffered, pyruvate kinase and lactate dehydrogenase-coupled ATPase assay at pCa25)
Type: biochemical
Conditions: concentration at which ATPase activity was 1.4-fold higher than the bottom of the dose curve, mean of a minimum of two independent tests
Method: In Vitro Model of Dose-Dependent Myofibril ATPase Modulation
Dose responses were measured using a calcium-buffered, pyruvate kinase and lactate dehydrogenase-coupled ATPase assay containing the following reagents (concentrations expressed are final assay concentrations): Potassium PIPES (12 mM), MgCl2 (2 mM), ATP (1 mM), DTT (1 mM), BSA (0.1 mg/ml), NADH (0.5 mM), PEP (1.5 mM), pyruvate kinase (4 U/ml), lactate dehydrogenase (8 U/ml), and antifoam (90 ppm). The pH was adjusted to 6.80 at 22° C. by addition of potassium hydroxide. Calcium levels were controlled by a buffering system containing 0.6 mM EGTA and varying concentrations of calcium, to achieve a free calcium concentration of 1×10^−4 M to 1×10^−8 M.
Bovine cardiac myofibrils were obtained by homogenizing the appropriate tissue in the presence of detergent. Such treatment removes membranes and majority of soluble cytoplasmic proteins but leaves intact cardiac sarcomeric acto-myosin apparatus. Concentrations of myofibrils were adjusted to achieve the necessary rate of ATP hydrolysis (typically 0.25-1.0 mg/ml).
Chemical entity dose responses were measured at the calcium concentration corresponding to 25% of maximal ATPase activity (pCa25), so a preliminary experiment was performed to test the response of the ATPase activity to free calcium concentrations in the range of 1×10^−4 M to 1×10^−8 M. Subsequently, the assay mixture was adjusted to the pCa25. Assays were performed by first preparing a dilution series of test chemical entity, each with an assay mixture containing potassium Pipes, MgCl2, BSA, DTT, pyruvate kinase, lactate dehydrogenase, myofibrils, antifoam, EGTA, CaCl2), and water. The assay was started by adding an equal volume of solution containing potassium Pipes, MgCl2, BSA, DTT, ATP, NADH, PEP, antifoam, and water. ATP hydrolysis was monitored by absorbance at 340 nm. The resulting dose response curve was fit by the 4 parameter equation y=Bottom+((Top−Bottom)/(1+((EC50/X)^Hill))). […] AC1.4 values reported in the table below are mean values based on a minimum of two independent tests.

Row | Structure (SMILES) | AC1.4 [µM]
1 | Cc1[nH]c(S(=O)(=O)N[C@@H]2CCc3c([nH]c4ccccc34)C2)cc1C(=O)N1CCCC1 [Compound 46, (R)-5-methyl-4-(pyrrolidine-1-carbonyl)-N-(2,3,4,9-tetrahydro-1H-carbazol-2-yl)-1H-pyrrole-2-sulfonamide] | 0.2277
2 | Cc1[nH]c(S(=O)(=O)N[C@@H]2Cc3cc(F)c(Cl)cc3C2)cc1C(=O)N1CC(C)(O)C1 [Compound 95, (R)-N-(5-chloro-6-fluoro-2,3-dihydro-1H-inden-2-yl)-4-(3-hydroxy-3-methylazetidine-1-carbonyl)-5-methyl-1H-pyrrole-2-sulfonamide] | 0.9577
3 | CNc1cc2nc(C)[nH]c(=O)c2cc1S(=O)(=O)N[C@@H]1CCc2c([nH]c3ccccc23)C1 (single isomer, unassigned) [Compound 33] | 0.0762
4 | CNc1cc2c(cc1S(=O)(=O)N[C@H]1C[C@H](c3cc(C(F)(F)F)ccn3)C1)c(=O)[nH]c(=O)n2C [Compound 60, 1-Methyl-7-(methylamino)-2,4-dioxo-N-((trans)-3-(4-(trifluoromethyl)pyridin-2-yl)cyclobutyl)-1,2,3,4-tetrahydroquinazoline-6-sulfonamide] | 2.062
5 | CNc1cc2c(cc1S(=O)(=O)N[C@H]1C[C@@H](Nc3cccc(F)c3)C1)c(=O)[nH]c(=O)n2C [Compound 14, N-((cis)-3-((3-fluorophenyl)amino)cyclobutyl)-1-methyl-7-(methylamino)-2,4-dioxo-1,2,3,4-tetrahydroquinazoline-6-sulfonamide] | 0.2006
6 | Cc1[nH]c(S(=O)(=O)N[C@H]2COc3ccc(Cl)cc3[C@@H]2O)cc1C(=O)N1CC(C)(C#N)C1 [Compound 75, N-((3S,4S)-6-chloro-4-hydroxychroman-3-yl)-4-(3-cyano-3-methylazetidine-1-carbonyl)-5-methyl-1H-pyrrole-2-sulfonamide] | 0.5877
7 | Cc1nc2ccc(S(=O)(=O)Nc3ccc(N4C[C@H](C)C[C@@H](C)C4)nc3)cc2c(=O)[nH]1 [Compound 5, N-(6-((3R,5R)-3,5-dimethylpiperidin-1-yl)pyridin-3-yl)-2-methyl-4-oxo-3,4-dihydroquinazoline-6-sulfonamide] | 4.4808
8 | CNc1cc2c(cc1S(=O)(=O)N[C@H]1C[C@H](c3cc(C(F)(F)F)ccn3)C1)c(=O)[nH]c(=O)n2C [Compound 59] | 0.4184
9 | Cc1[nH]c(S(=O)(=O)N[C@@H]2CCc3c([nH]c4ccccc34)C2)cc1C(=O)N1CC(C)(C#N)C1 [Compound 48, (R)-4-(3-cyano-3-methylazetidine-1-carbonyl)-5-methyl-N-(2,3,4,9-tetrahydro-1H-carbazol-2-yl)-1H-pyrrole-2-sulfonamide] | 0.04675
10 | COc1cc2c(cc1S(=O)(=O)N[C@H]1C[C@H](n3cc(C(F)(F)F)c(C)n3)C1)c(=O)[nH]c(=O)n2C [Compound 62, 7-Methoxy-1-methyl-N-((trans)-3-(3-methyl-4-(trifluoromethyl)-1H-pyrazol-1-yl)cyclobutyl)-2,4-dioxo-1,2,3,4-tetrahydroquinazoline-6-sulfonamide] | 0.8691
11 | Cc1[nH]c(S(=O)(=O)N[C@H]2C[C@H](c3cccc(F)c3)C2)cc1C(=O)N1CC(C)(C#N)C1 [Compound 51, 4-(3-Cyano-3-methylazetidine-1-carbonyl)-N-((trans)-3-(3-fluorophenyl)cyclobutyl)-5-methyl-1H-pyrrole-2-sulfonamide] | 2.8889
12 | Cc1[nH]c(S(=O)(=O)NC2CCc3c([nH]c4ccccc34)C2)cc1C(=O)N(C)C (stereo not shown) [Compound 36, N,N,2-trimethyl-5-(N-(2,3,4,9-tetrahydro-1H-carbazol-2-yl)sulfamoyl)-1H-pyrrole-3-carboxamide] | 6.922
13 | CNc1cc2c(cc1S(=O)(=O)N[C@H]1C[C@@H](Nc3ccc(F)cc3)C1)c(=O)[nH]c(=O)n2C [Compound 25, N-((cis)-3-((4-fluorophenyl)amino)cyclobutyl)-1-methyl-7-(methylamino)-2,4-dioxo-1,2,3,4-tetrahydroquinazoline-6-sulfonamide] | 1.8965
14 | Cc1[nH]c(S(=O)(=O)NC23COc4cc(F)c(Cl)cc4C2C3)cc1C(=O)N1CC(C#N)C1 (stereo not shown) [Compound 81, N-(6-chloro-5-fluoro-1,7b-dihydrocyclopropa[c]chromen-1a(2H)-yl)-4-(3-cyanoazetidine-1-carbonyl)-5-methyl-1H-pyrrole-2-sulfonamide] | 1.194
15 | Cc1[nH]c(S(=O)(=O)N[C@@H]2Cc3cc(Cl)c(Cl)cc3[C@@]2(C)O)cc1C(=O)N1CC(C)(C#N)C1 [Compound 82, 4-(3-cyano-3-methylazetidine-1-carbonyl)-N-((1R,2R)-5,6-dichloro-1-hydroxy-1-methyl-2,3-dihydro-1H-inden-2-yl)-5-methyl-1H-pyrrole-2-sulfonamide] | 0.6173
16 | Cc1[nH]c(S(=O)(=O)Nc2ccc(N3C[C@H](C)C[C@@H](C)C3)nc2)cc1C(=O)N1CC(F)(F)C1 [Compound 49, 4-(3,3-Difluoroazetidine-1-carbonyl)-N-(6-((3R,5R)-3,5-dimethylpiperidin-1-yl)pyridin-3-yl)-5-methyl-1H-pyrrole-2-sulfonamide] | 2.9024
17 | Cc1[nH]c(S(=O)(=O)N[C@@H]2CCc3c([nH]c4ccccc34)C2)cc1C1=NCC(C)(C)O1 [Compound 68, (R)-4-(5,5-dimethyl-4,5-dihydrooxazol-2-yl)-5-methyl-N-(2,3,4,9-tetrahydro-1H-carbazol-2-yl)-1H-pyrrole-2-sulfonamide] | 0.1213
18 | Cc1[nH]c(S(=O)(=O)N[C@@H]2CCc3c([nH]c4ccccc34)C2)cc1C(=O)NCCO [Compound 39, (R)-N-(2-hydroxyethyl)-2-methyl-5-(N-(2,3,4,9-tetrahydro-1H-carbazol-2-yl)sulfamoyl)-1H-pyrrole-3-carboxamide] | 1.722
19 | Cc1[nH]c(S(=O)(=O)N[C@H]2C[C@H](c3cccc(Cl)c3)C2)cc1C(=O)N1CC(C)(C#N)C1 [Compound 50, N-((trans)-3-(3-chlorophenyl)cyclobutyl)-4-(3-cyano-3-methylazetidine-1-carbonyl)-5-methyl-1H-pyrrole-2-sulfonamide] | 0.5466
20 | Cc1[nH]c(S(=O)(=O)N[C@@H]2CCc3c([nH]c4ccccc34)C2)cc1C(=O)N1CCCCC1 [Compound 47, (R)-5-methyl-4-(piperidine-1-carbonyl)-N-(2,3,4,9-tetrahydro-1H-carbazol-2-yl)-1H-pyrrole-2-sulfonamide] | 1.9857
21 | Cc1[nH]c(S(=O)(=O)N[C@@H]2CCc3c([nH]c4ccccc34)C2)cc1C(=O)N1CC(C)(C)C1 [Compound 40, (R)-4-(3,3-dimethylazetidine-1-carbonyl)-5-methyl-N-(2,3,4,9-tetrahydro-1H-carbazol-2-yl)-1H-pyrrole-2-sulfonamide] | 0.0608
22 | Cc1[nH]c(S(=O)(=O)N[C@@H]2Cc3cc(F)c(Cl)cc3C2)cc1C(=O)N1CC2(COC2)C1 [Compound 96, (R)-N-(5-chloro-6-fluoro-2,3-dihydro-1H-inden-2-yl)-5-methyl-4-(2-oxa-6-azaspiro[3.3]heptane-6-carbonyl)-1H-pyrrole-2-sulfonamide] | 1.218
23 | CNc1cc2nc(C)[nH]c(=O)c2cc1S(=O)(=O)Nc1ccc(N2C[C@H](C)C[C@@H](C)C2)nc1 [Compound 8, N-(6-((3R,5R)-3,5-dimethylpiperidin-1-yl)pyridin-3-yl)-2-methyl-7-(methylamino)-4-oxo-3,4-dihydroquinazoline-6-sulfonamide] | 0.6695
24 | Cc1cc(S(=O)(=O)N[C@@H]2COc3cc(F)c(Cl)cc3[C@@H]2O)cc(N2CC[C@@H](C#N)C2)n1 [Compound 91, N-((3R,4S)-6-chloro-7-fluoro-4-hydroxychroman-3-yl)-2-((R)-3-cyanopyrrolidin-1-yl)-6-methylpyridine-4-sulfonamide] | 1.417
25 | CNc1cc2c(cc1S(=O)(=O)N[C@H]1C[C@@H](Nc3ccccc3)C1)c(=O)[nH]c(=O)n2C [Compound 17] | 0.6931
26 | CNc1cc2nc(C)[nH]c(=O)c2cc1S(=O)(=O)NCCc1cc2ccccc2[nH]1 [Compound 34] | 13.2484
27 | Cc1[nH]c(S(=O)(=O)N[C@@H]2COc3cc(F)c(Cl)cc3[C@H]2O)cc1C(=O)N1CC(C)(C#N)C1 [Compound 77, N-((3R,4R)-6-chloro-7-fluoro-4-hydroxychroman-3-yl)-4-(3-cyano-3-methylazetidine-1-carbonyl)-5-methyl-1H-pyrrole-2-sulfonamide] | 0.1896
28 | CNc1cc2c(cc1S(=O)(=O)N[C@H]1[C@@H]3CN(c4cccc(F)c4)C[C@@H]31)c(=O)[nH]c(=O)n2C [Compound 22, N-((1R,5S,6s)-3-(3-Fluorophenyl)-3-azabicyclo[3.1.0]hexan-6-yl)-1-methyl-7-(methylamino)-2,4-dioxo-1,2,3,4-tetrahydroquinazoline-6-sulfonamide] | 0.4479
